Assay results published in patent US20080261977A1, “Pyrimidine Derivatives as Cannabinoid Receptor Modulators” (priority 2004, published 2008).
Where a name gives a salt, the structure may show the parent alone. Read-outs that look alike come from different tables or passages of the source.

How the values were obtained:
[1] = target: T1, human cannabinoid CB2 receptor (Homo sapiens, UniProt P34972); assay: Cannabinoid CB2 receptor agonist activity, yeast (Saccharomyces cerevisiae) cells expressing the receptor, FDGlu fluorescence; type: cell-based; conditions: for Emax: read-out: efficacy (Emax relative to HU210) at the cloned human cannabinoid CB2 receptor
T1 construct: expressed in transfected cells; host or cells: Saccharomyces cerevisiae strain MMY23 (cassette integrated at the ura3 locus; chimeric Gpa1/Gαi3)
Procedure, shortened: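 S. cerevisiae MMY23 expressing human CB2 with a Gpa1/Gαi3 chimeric G-protein were incubated 24 h at 30° C with agonist in selective medium containing 3-aminotriazole and FDGlu, pH 7.0. Growth-linked fluorescein fluorescence (485/535 nm) gave EC50 by four-parameter fit; Emax and EMR expressed relative to HU210.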

[2] = target: T2, human cannabinoid CB1 receptor (Homo sapiens, UniProt P21554); assay: Cannabinoid CB1 receptor agonist activity, yeast (Saccharomyces cerevisiae) cells expressing the receptor, FDGlu fluorescence; type: cell-based; conditions: for Emax: read-out: efficacy (Emax relative to HU210) at the cloned human CB1 receptor
T2 construct: expressed in transfected cells; host or cells: Saccharomyces cerevisiae strain MMY23 (cassette integrated at the ura3 locus; chimeric Gpa1/Gαi3)
Experimental: The cannabinoid CB1 receptor agonist activity of the compounds of formula (I) was determined in accordance with the following experimental method.
Yeast (Saccharomyces cerevisiae) cells expressing the human cannabinoid CB1 receptor were generated by integration of an expression cassette into the ura3 chromosomal locus of yeast strain MMY23. This cassette consisted of DNA sequence encoding the human CB1 receptor flanked by the yeast GPD promoter to the 5′ end of CB 1 and a yeast transcriptional terminator sequence to the 3′ end of CB1. MMY23 expresses a yeast/mammalian chimeric G-protein alpha subunit in which the C-terminal 5 amino acids of Gpal are replaced with the C-terminal 5 amino acids of human Gαi3 (as described in Brown et al. (2000), Yeast 16:11-22). Cells were grown at 30° C. in liquid Synthetic Complete (SC) yeast media (Guthrie and Fink (1991), Methods in Enzymology, Vol. 194) lacking uracil, tryptophan, adenine and leucine to late logarithmic phase (approximately 6 OD600/ml).
Agonists were prepared as 10 mM stocks in DMSO. EC50 values (the concentration required to produce 50% maximal response) were estimated using dilutions of between 3- and 5-fold (BiomekFX, Beckman) into DMSO. Agonist solutions in DMSO (1% final assay volume) were transferred into black, clear bottom, microtitre plates from NUNC (96- or 384-well). Cells were suspended at a density of 0.2 OD600/ml in SC media lacking histidine, uracil, tryptophan, adenine and leucine and supplemented with 10 mM 3-aminotriazole, 0.1M sodium phosphate pH 7.0, and 20 μM fluorescein di-β-D-glucopyranoside (FDGlu). This mixture (50 ul per well for 384-well plates, 200 ul per well for 96-well plates) was added to agonist in the assay plates (Multidrop 384, Labsystems). After incubation at 30° C. for 24 hours, fluorescence resulting from degradation of FDGlu to fluorescein due to exoglucanase, an endogenous yeast enzyme produced during agonist-stimulated cell growth, was determined using a Spectrofluor microtitre plate reader (Tecan; excitation wavelength: 485 nm; emission wavelength: 535 nm). Fluorescence was plotted against compound concentration and iteratively curve fitted using a four parameter fit to generate a concentration effect value. Efficacy (Emax) was calculated from the equation […]
where Max[compound X] and Min[compound X] are the fitted maximum and minimum respectively from the concentration effect curve for compound X, and Max[HU210] and Min[HU210] are the fitted maximum and minimum respectively from the concentration effect curve for (6aR,10aR)-3-(1,1′-Dimethylheptyl)-6a,7,10,10a-tetrahydro-1 hydroxy-6,6-dimethyl-6H-dibenzo[b,d]pyran-9-methanol (HU210; available from Tocris). Equieffective molar ratio (EMR) values were calculated from the equation […]

T1 sequence (P34972 whole entry): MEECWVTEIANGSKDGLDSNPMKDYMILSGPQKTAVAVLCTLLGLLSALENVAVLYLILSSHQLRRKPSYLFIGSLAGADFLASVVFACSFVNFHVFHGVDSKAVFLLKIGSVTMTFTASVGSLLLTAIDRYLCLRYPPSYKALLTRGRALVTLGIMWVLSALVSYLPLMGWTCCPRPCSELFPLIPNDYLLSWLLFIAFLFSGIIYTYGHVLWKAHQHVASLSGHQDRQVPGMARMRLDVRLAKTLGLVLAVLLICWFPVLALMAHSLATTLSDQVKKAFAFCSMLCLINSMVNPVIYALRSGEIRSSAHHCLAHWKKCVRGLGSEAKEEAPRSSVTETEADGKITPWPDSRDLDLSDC
T2 sequence (P21554 whole entry): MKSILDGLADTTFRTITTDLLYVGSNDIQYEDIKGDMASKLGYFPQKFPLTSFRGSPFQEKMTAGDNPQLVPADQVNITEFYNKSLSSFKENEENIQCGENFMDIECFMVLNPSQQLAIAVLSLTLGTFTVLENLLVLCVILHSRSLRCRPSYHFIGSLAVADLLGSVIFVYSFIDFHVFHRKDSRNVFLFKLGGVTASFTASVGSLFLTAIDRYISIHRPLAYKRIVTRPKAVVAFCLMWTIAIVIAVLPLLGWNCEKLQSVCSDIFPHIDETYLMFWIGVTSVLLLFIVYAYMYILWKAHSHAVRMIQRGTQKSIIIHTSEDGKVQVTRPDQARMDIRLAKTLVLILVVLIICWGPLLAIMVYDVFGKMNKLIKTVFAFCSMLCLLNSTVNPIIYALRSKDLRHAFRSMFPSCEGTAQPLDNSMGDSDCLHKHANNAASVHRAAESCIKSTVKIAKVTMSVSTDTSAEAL

Compound | EC50 ([1]; yeast agonist assay, read-out: EC50 at the cloned human cannabinoid CB2 receptor) [nM] | Emax ([1]; yeast agonist assay) [%] | Emax [2] [%] | EC50 ([2]; yeast agonist assay, read-out: EC50 at the cloned human CB1 receptor) [nM] | EC50 [1] [nM] | Emax [1] [%] | EC50 [2] [nM]
CC(NCC1CCCCC1)c1cnc(Nc2cccc(Cl)c2)nc1C(F)(F)F (centres unmarked) [Example 89, (3-Chlorophenyl)-{5-[1-(cyclohexylmethyl-amino)-ethyl]-4-trifluoromethyl-pyrimidin-2-yl}-amine, formate] | < 300 | > 50 | 50 to 100 | 300 to 1000 | – | – | –
CC(NCC1CCOCC1)c1cnc(Nc2ccc(Cl)cc2Cl)nc1C(F)(F)F (centres unmarked) [Example 91, (2,4-Dichlorophenyl)-(5-{1-[(tetrahydro-pyran-4-ylmethyl)-amino]-ethyl}-4-trifluoromethyl-pyrimidin-2-yl)-amine] | – | – | 50 to 100 | – | < 300 | > 50 | 300 to 1000
